Our source for the IC50 values is patent publication US20260200928A1, “THERAPEUTIC COMPOUNDS” (Sanofi, priority 2022, published 2026).

The IC50 is the concentration that inhibits the measured activity by half.

Molecules are shown by their SMILES.

This assay addresses T1, human IL-17A (Homo sapiens, UniProt Q16552).
T1 construct: purchased R&D Systems 7955-IL/CF
T1 sequence (Q16552 24-155): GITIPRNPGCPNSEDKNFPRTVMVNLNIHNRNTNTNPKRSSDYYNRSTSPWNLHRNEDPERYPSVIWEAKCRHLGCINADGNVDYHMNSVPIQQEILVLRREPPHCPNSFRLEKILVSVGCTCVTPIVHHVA
Kind of assay: IL-17A AlphaLISA competition assay (block of IL-17A binding to its receptor IL-17RA). To be noted: mean IC50 (n≥2), block of IL-17A binding to IL-17RA. The method, then:
The ability of the compounds to block binding of IL-17A to its receptor, IL-17RA, was analysed in a competition assay using AlphaLISA technology (Perkin Elmer). The assay is a bead based AlphaLISA where the IL-17RA is captured on the acceptor bead via an Fc tag and IL-17A is captured on the streptavidin donor bead via a biotinylated anti-IL17A antibody.
Assay buffer was prepared by adding 0.05% Tween-20 (v/v) and 0.1% BSA to Phosphate Buffered Saline (PBS). The assay was carried out in 384-well white low volume plates (Perkin Elmer #6008359). 10 μL of a 7.5 nM stock of human recombinant IL-17A (R&D Systems 7955-IL/CF) diluted in assay buffer was dispensed into the assay plate and compounds or DMSO vehicle control were added in a volume of 75 nL using an acoustic dispenser (Beckman). The compounds were pre-incubated with the IL-17A for 30 min at room temperature prior to addition of 5 μL of a 5 nM stock of human recombinant IL-17RA/Fc chimera (R&D Systems 177-IR-100) diluted in assay buffer. The IL-17A was incubated with the receptor for a further 90 minutes at room temperature before addition of 5 μL of a mixture of anti-human Fc IgG acceptor beads (75 μg/mL, Perkin Elmer AL1030) and anti-IL-17A biotin conjugated antibody (5 nM, Abcam, #ab155575) in assay buffer. After a further 30 min incubation at room temperature, 5 μL of streptavidin donor beads (75 μg/mL, Perkin Elmer 6760002S) were added and the plate was incubated for 3 h in the dark.
The AlphaLisa signal was measured using the PheraSTAR plate reader (BMG). Data were analysed using GeneData Screener and fitted to a 4-parameter logistic equation. The IC50 values were calculated using the DMSO vehicle as the negative control and a high concentration (4 μM) of a reference IL-17A inhibitor as the positive control. All compounds were analysed at least in duplicate (n≥2).
For orientation: Alpha assays give light when donor and acceptor beads are brought close together.
`COC[C@H](c1ccnc(NC(=O)[C@H](COC(C)(C)C(F)(F)F)NC(=O)c2nocc2C)c1)N1C[C@@H](C(F)(F)F)NC1=O` [Example 265, N—((S)-1-((4-((S)-2-methoxy-1-((S)-2-oxo-4-(trifluoromethyl)-imidazolidin-1-yl)ethyl)pyridin-2-yl)amino)-1-oxo-3-((1,1,1-trifluoro-2-methylpropan-2-yl)oxy)propan-2-yl)-4-methylisoxazole-3-carboxamide] displayed an IC50 of 45 nM.

In turn, `CCn1nccc1C(=O)N[C@H](C(=O)Nc1cc(C(NC(=O)CCC(F)(F)F)C2CC2)ccn1)C1CCC(F)(F)CC1` (stereo partly drawn) [Example 108, N-((1S)-2-((4-(cyclopropyl(4,4,4-trifluorobutanamido)methyl)pyridin-2-yl)amino)-1-(4,4-difluorocyclohexyl)-2-oxoethyl)-1-ethyl-1H-pyrazole-5-carboxamide] yielded an IC50 of 33 nM.

`COC[C@H](c1ccnc(NC(=O)[C@@H](NC(=O)Cc2cccc(C#N)c2)C2CCC(F)(F)CC2)c1)N1C[C@@H](C(F)(F)F)NC1=O` [Example 206, (S)-2-(2-(3-cyanophenyl)acetamido)-2-(4,4-difluorocyclohexyl)-N-(4-((S)-2-methoxy-1-((S)-2-oxo-4-(trifluoromethyl)imidazolidin-1-yl)ethyl)pyridin-2-yl)acetamide]: the half-maximal inhibitory concentration (IC50) was found to be 157 nM.

`COCC(NC(=O)CCC(F)(F)F)c1ccnc(NC(=O)[C@@H](NC(=O)c2nccn2C(C)C)C2CCC(F)(F)CC2)c1` (single isomer, unassigned) [Example 148] gave an IC50 of 8280 nM.

Turning to `Cn1nccc1C(=O)N[C@H](C(=O)Nc1cc(CN2C[C@@H](C(F)(F)F)NC2=O)ccn1)[C@H]1CC[C@@H](C)CC1` [Example 264, 1-Methyl-N—((S)-1-((1s,4R)-4-methylcyclohexyl)-2-oxo-2-((4-(((S)-2-oxo-4-(trifluoromethyl)imidazolidin-1-yl)methyl)pyridin-2-yl)amino)ethyl)-1H-pyrazole-5-carboxamide], the IC50 was 99 nM.

As to `COC[C@H](c1ccnc(NC(=O)[C@@H](NC(=O)c2nonc2C(C)C)C2CCC(F)(F)CC2)c1)N1C[C@@H](C(F)(F)F)NC1=O` [Example 195, N-((S)-1-(4,4-difluorocyclohexyl)-2-((4-((S)-2-methoxy-1-((S)-2-oxo-4-(trifluoromethyl)imidazolidin-1-yl)ethyl)pyridin-2-yl)amino)-2-oxoethyl)-4-isopropyl-1,2,5-oxadiazole-3-carboxamide], the IC50 was 18 nM.

Compound `CC(C)n1nccc1C(=O)N[C@H](C(=O)Nc1cc(C[C@@H]2C[C@@H](C(F)(F)F)NC2=O)ccn1)[C@H]1CC[C@H](C)CC1` [Example 154, 1-isopropyl-N—((S)-1-((1r,4S)-4-methylcyclohexyl)-2-oxo-2-((4-(((3R,5S)-2-oxo-5-(trifluoromethyl)pyrrolidin-3-yl)methyl)pyridin-2-yl)amino)ethyl)-1H-pyrazole-5-carboxamide] registered an IC50 of 527 nM.

The compound `COCC(c1ccnc(NC(=O)C(NC(=O)C(F)(F)C(C)C)C2CCC(C)CC2)c1)N1CC(C(F)(F)F)NC1=O` (single isomer, unassigned) [Example 255] yielded an IC50 of 71 nM.

As to `COCC(NC(=O)CCC(F)(F)F)c1ccnc(NC(=O)C(NC(=O)c2ccnn2C)C2CCC(C)CC2)c1` [Example 245, N-((1S)-2-((4-(2-methoxy-1-(4,4,4-trifluorobutanamido)ethyl)pyridin-2-yl)amino)-1-((1r,4S)-4-methylcyclohexyl)-2-oxoethyl)-1-methyl-1H-pyrazole-5-carboxamide], the concentration for half-maximal inhibition (IC50) is 73 nM.

`COC[C@H](c1ccnc(NC(=O)[C@@H](NC(=O)c2conc2C)C2CCC(Cl)CC2)c1)N1C[C@@H](C(F)(F)F)NC1=O` (stereo partly drawn) [Example 313, N-((1S)-1-(4-chlorocyclohexyl)-2-((4-((S)-2-methoxy-1-((S)-2-oxo-4-(trifluoromethyl)imidazolidin-1-yl)ethyl)pyridin-2-yl)amino)-2-oxoethyl)-3-methylisoxazole-4-carboxamide] had an IC50 of 109 nM.

On to `COC[C@H](c1ccnc(NC(=O)[C@H](COC(C)(C)C(F)(F)F)NC(=O)c2nonc2C)c1)N1C[C@@H](C(F)(F)F)NC1=O` [Example 268, N-((S)-1-((4-((S)-2-methoxy-1-((S)-2-oxo-4-(trifluoromethyl)imidazolidin-1-yl)ethyl)pyridin-2-yl)amino)-1-oxo-3-((1,1,1-trifluoro-2-methylpropan-2-yl)oxy)propan-2-yl)-4-methyl-1,2,5-oxadiazole-3-carboxamide], for which the IC50 amounted to 31 nM.

In the case of `CCn1nccc1C(=O)NC(C(=O)Nc1cc(CN2CC(C(F)(F)F)NC2=O)ccn1)C1CCC(F)CC1` [Example 293, 1-ethyl-N-((S)-1-((1r,4S)-4-fluorocyclohexyl)-2-oxo-2-((4-(((S)-2-oxo-4-(trifluoromethyl)imidazolidin-1-yl)methyl)pyridin-2-yl)amino)ethyl)-1H-pyrazole-5-carboxamide], the IC50 is 153 nM.

In turn, `C[C@@H]1CN(Cc2ccnc(NC(=O)[C@@H](NC(=O)c3ccnn3C)C(C3CC3)C3CC3)c2)C(=O)N1` [Example 33, N—((S)-1,1-dicyclopropyl-3-((4-(((R)-4-methyl-2-oxoimidazolidin-1-yl)methyl)pyridin-2-yl)amino)-3-oxopropan-2-yl)-1-methyl-1H-pyrazole-5-carboxamide] displayed an IC50 of 1010 nM.

`COCC(c1ccnc(NC(=O)C(NC(=O)C(F)c2ccccc2)C2CCC(C)CC2)c1)N1CC(C(F)(F)F)NC1=O` [Example 254, 2-fluoro-N-((S)-2-((4-((S)-2-methoxy-1-((S)-2-oxo-4-(trifluoromethyl)-imidazolidin-1-yl)ethyl)pyridin-2-yl)amino)-1-((1r,4S)-4-methylcyclohexyl)-2-oxoethyl)-2-phenylacetamide] had an IC50 of 77 nM.

Turning to `CCc1nocc1C(=O)N[C@H](C(=O)Nc1cc([C@@H](CC)N2C[C@@H](C(F)(F)F)NC2=O)ccn1)C1CCC(F)(F)CC1` [Example 210, N-((S)-1-(4,4-difluorocyclohexyl)-2-oxo-2-((4-((R)-1-((S)-2-oxo-4-(trifluoromethyl)imidazolidin-1-yl)propyl)pyridin-2-yl)amino)ethyl)-3-ethylisoxazole-4-carboxamide], the 50% inhibitory concentration (IC50) worked out at 38 nM.

`CCc1nocc1C(=O)NC(C(=O)Nc1cc(CC2=C[C@@H](C(F)(F)F)NC2=O)ccn1)C1CCC(F)(F)CC1` (stereo in doubt) [Example 216, N-((1S)-1-(4,4-difluorocyclohexyl)-2-oxo-2-((4-((2-oxo-5-(trifluoromethyl)-2,5-dihydro-1H-pyrrol-3-yl)methyl)pyridin-2-yl)amino)ethyl)-3-ethylisoxazole-4-carboxamide] yielded a concentration for half-maximal inhibition (IC50) of 137 nM.

Regarding `COC[C@H](c1ccnc(NC(=O)C(NC(=O)c2nonc2C2CC2)C2CCC(F)CC2)c1)N1C[C@@H](C(F)(F)F)NC1=O` (single isomer, unassigned) [Example 277], the IC50 turned out to be 44 nM.

Compound `COCC(NC(=O)CCC(F)(F)F)c1ccnc(NC(=O)[C@@H](NC(=O)c2ccnn2C)C2CCC(F)(F)CC2)c1` (single isomer, unassigned) [Example 136] displayed a half-maximal inhibitory concentration (IC50) of 252 nM.
